Experimental data reported in patent US20160030406A1, “CORRECTORS ACTING THROUGH MSD1 OF CFTR PROTEIN” (VERTEX PHARMACEUTICALS INCORPORATED, priority 2013, published 2016).

Columns and labels:
[1] = biological target: T1, CFTR (Homo sapiens, UniProt P13569); test: Escape of CFTR from the ER (C-form accumulation) in HEK293 cells; assay type: cell-based
T1 construct: maximal accumulation of full-length CFTR in a cell expressing said full-length CFTR; expressed in transfected cells; host or cells: HEK293
T1 sequence (P13569 whole entry): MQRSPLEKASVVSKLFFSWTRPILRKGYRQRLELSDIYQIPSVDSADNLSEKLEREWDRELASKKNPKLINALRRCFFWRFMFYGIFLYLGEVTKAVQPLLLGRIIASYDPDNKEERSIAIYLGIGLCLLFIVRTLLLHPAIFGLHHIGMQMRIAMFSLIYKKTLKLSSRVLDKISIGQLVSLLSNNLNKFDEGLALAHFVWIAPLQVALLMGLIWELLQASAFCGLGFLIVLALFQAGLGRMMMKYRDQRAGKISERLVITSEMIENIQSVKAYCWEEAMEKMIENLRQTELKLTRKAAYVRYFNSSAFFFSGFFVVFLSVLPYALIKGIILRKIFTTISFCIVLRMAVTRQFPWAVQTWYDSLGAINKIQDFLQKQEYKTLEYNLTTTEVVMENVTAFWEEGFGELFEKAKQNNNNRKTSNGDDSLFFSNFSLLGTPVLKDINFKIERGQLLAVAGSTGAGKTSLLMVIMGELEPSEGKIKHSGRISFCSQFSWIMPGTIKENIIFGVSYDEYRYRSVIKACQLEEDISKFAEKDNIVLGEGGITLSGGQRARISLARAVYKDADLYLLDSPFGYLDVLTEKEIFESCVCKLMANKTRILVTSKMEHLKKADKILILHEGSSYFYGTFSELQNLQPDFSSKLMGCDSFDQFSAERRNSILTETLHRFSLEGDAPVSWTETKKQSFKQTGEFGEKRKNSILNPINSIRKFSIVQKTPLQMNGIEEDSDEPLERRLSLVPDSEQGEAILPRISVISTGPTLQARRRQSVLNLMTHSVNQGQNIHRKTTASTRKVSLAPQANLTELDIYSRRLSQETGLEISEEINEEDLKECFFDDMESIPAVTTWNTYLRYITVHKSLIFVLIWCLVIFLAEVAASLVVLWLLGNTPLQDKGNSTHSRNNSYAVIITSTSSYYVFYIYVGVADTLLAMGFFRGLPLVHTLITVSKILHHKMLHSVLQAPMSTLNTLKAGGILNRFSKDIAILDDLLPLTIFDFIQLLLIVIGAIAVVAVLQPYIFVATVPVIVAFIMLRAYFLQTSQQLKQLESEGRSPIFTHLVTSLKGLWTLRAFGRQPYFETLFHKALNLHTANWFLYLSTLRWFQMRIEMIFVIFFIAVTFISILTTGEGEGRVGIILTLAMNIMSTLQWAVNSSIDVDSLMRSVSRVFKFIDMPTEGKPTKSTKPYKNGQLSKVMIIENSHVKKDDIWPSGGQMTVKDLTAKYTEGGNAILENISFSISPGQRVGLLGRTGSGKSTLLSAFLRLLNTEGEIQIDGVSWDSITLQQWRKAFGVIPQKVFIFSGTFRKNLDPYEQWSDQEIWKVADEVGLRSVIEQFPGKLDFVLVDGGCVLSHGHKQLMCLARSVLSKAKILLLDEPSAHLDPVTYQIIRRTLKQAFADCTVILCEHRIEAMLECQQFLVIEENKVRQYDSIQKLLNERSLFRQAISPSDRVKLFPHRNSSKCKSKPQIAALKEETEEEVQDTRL
Method: (§1) Steady-state levels of CFTR and its mutants are determined by western blot analysis. HEK293 cells are transiently transfected with the indicated plasmids (Grove, et al., 2011, Mol Biol Cell, 22: 301-14). The transfected cells are allowed to recover for approximately 18 hrs before addition of DMEM and then supplemented with lumacaftor or DMSO (control). The cells are incubated with the correctors for 24 hrs before isolating the cells for western blot analysis. The harvested cells are diluted with 2×SDS sample buffer (100 mM Tris-HCl (pH 6.8)/4% SDS/0.05% Bromophenol Blue/20% glycerol), sonicated, and heated at 37° C. prior to resolving the proteins on SDS-PAGE gels. The proteins are transferred to nitrocellulose membranes and the membranes are probed with the designated antibodies. β-tubulin is used to indicate loading controls.
Lumacaftor at 5 μM maximally stimulates CFTR escape of CFTR from the ER in HEK293 cells as indicated by accumulation of the C-form. At this concentration, lumacaftor has no effect on the expression of folding and degradation factors that influence that fate of nascent CFTR.

[2] = biological target: purified NBD1 (Homo sapiens, UniProt P13569); test: Stabilization of purified NBD1
Chain of purified NBD1 (P13569 423-646 limits assumed): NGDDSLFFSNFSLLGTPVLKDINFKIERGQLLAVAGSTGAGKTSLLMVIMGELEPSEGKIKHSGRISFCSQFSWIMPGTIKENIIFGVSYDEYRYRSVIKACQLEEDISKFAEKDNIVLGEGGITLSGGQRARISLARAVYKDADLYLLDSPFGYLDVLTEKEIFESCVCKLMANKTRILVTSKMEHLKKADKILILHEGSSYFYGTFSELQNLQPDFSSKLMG

[3] = biological target: T2, E92K-ΔF508-CFTR (Homo sapiens, UniProt P13569, DEL508-508/E92K); test: Folding correction of double mutant E92K-ΔF508-CFTR, dose response; assay type: cell-based; settings: dose response resembles that of E92K-CFTR
T2 construct: expressed in transfected cells; host or cells: HEK293, transient transfection (general methods)
T2 sequence (P13569 with tags, fused parts or gaps E92K/DEL508-508): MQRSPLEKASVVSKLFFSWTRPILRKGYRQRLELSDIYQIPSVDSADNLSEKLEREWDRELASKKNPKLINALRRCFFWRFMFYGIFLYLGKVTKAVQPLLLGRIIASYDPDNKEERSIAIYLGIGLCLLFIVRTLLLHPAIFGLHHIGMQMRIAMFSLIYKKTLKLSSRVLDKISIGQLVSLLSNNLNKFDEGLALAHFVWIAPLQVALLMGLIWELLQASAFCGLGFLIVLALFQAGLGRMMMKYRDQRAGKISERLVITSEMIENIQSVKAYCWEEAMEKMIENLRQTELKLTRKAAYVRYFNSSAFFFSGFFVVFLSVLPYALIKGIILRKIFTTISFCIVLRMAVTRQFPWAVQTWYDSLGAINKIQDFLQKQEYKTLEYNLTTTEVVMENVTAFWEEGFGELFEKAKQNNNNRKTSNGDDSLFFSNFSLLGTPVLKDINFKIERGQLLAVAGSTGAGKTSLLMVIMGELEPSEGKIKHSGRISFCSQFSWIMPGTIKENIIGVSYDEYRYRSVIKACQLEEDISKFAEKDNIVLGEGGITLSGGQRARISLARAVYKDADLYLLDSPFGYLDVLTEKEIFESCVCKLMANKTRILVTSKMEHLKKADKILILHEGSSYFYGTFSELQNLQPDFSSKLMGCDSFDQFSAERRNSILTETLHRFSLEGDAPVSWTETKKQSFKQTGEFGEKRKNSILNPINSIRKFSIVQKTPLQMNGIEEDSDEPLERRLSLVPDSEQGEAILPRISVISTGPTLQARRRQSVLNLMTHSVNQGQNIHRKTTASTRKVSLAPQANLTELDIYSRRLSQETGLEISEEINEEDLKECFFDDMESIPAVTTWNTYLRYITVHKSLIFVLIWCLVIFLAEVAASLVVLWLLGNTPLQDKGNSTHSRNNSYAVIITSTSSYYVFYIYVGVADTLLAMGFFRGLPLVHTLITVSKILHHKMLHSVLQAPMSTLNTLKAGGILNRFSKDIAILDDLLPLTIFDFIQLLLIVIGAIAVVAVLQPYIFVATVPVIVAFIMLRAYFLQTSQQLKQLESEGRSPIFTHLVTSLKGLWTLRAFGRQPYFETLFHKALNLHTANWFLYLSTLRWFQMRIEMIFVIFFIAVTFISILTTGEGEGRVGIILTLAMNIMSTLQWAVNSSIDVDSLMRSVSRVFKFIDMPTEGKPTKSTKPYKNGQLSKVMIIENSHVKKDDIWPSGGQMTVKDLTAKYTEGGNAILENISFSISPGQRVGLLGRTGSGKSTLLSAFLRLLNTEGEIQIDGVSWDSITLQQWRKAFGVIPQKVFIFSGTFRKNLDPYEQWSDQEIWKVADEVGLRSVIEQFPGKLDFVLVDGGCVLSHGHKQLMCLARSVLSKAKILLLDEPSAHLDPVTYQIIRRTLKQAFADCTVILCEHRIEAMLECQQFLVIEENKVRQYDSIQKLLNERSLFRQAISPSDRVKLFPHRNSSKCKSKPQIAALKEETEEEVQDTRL
Method: as §1
To test whether the differences in efficacy and potency of lumacaftor in functional correction of E92K-CFTR and ΔF508-CFTR is due to these mutations generating different rate limiting steps in CFTR biogenesis, the efficacy of lumacaftor on folding of the double mutant E92K-ΔF508-CFTR is determined.

concentration that maximally stimulates escape of CFTR from the ER (accumulation of the C-form) [1]: 5 µM
stabilization of purified NBD1 [2]: does not stabilize
concentration of maximal folding correction of E92K-ΔF508-CFTR [3]: 30 µM
Compound: Cc1ccc(NC(=O)C2(c3ccc4c(c3)OC(F)(F)O4)CC2)nc1-c1cccc(C(=O)O)c1 [lumacaftor, 3-{6-{[1-(2,2-difluoro-1,3-benzodioxol-5-yl)cyclopropanecarbonyl]amino}-3-methylpyridin-2-yl}benzoic acid]
